Measured values taken from patent publication US20180344756A1, “METHODS FOR THE TREATMENT AND PREVENTION OF RENAL DISORDERS AND FATTY LIVER DISORDERS” (Janssen Pharmaceutica NV, priority 2014, published 2018).

Assays:
[1] = metformin on its own, in the diabetic; cited from earlier work
[2] = Albumin/creatinine ratio in the CANVAS clinical trial, subjects with micro- or macroalbuminuria; format: in vivo, human; conditions: for median percent change from baseline in ACR at Week 52: subjects with macroalbuminuria, Week 52, 82% of subjects on ACEIs or ARBs at baseline, placebo −3.6%
Procedure: (§1) The albumin/creatinine ratio was measured at baseline, over 12 weeks, over 52 weeks, and over 104 weeks, in subjects participating in the CANagliflozin cardioVascular Assessment Study (CANVAS), the DIA3004 clinical trial, and the DIA3009 clinical trial, respectively. (Complete protocol details for the CANVAS, DIA3004 and DIA3009 clinical trials are available on www.clinicaltrials.gov).
In subjects with macroalbuminuria in CANVAS, the median percent change from baseline in ACR at Week 52 was −3.6% in the placebo group, −58.6% in the canagliflozin 100 mg group, and −53.3% in the canagliflozin 300 mg group.

[3] = eGFR change from baseline over time in the CANVAS, DIA3004 and DIA3009 clinical trials; format: in vivo, human; conditions: maximal at first post baseline visit, stable or attenuated with continued treatment; CANVAS and DIA3004 52 weeks, DIA3009 104 weeks; FIG. 3-5
Text: The time course of eGFR changes over 52 weeks in the CANVAS clinical trial is shown in FIG. 3; over a 52-week study in subjects with moderate renal impairment (in the DIA3004 clinical trial) are shown in FIG. 4; and over a 104-week period in an active comparator study (DIA3009, add-on to metformin) are shown in FIG. 5.

[4] = Albuminuria in the DIA3004 clinical trial, subjects with moderate renal impairment; format: in vivo, human; conditions: 52-week study, placebo 19.7%
Procedure: as §1

Compound | average improvement in the HbA1c value [1] | median percent change from baseline in ACR at Week 52 ([2]; canagliflozin 100 mg) [%] | median percent change from baseline in ACR at Week 52 ([2]; canagliflozin 300 mg) [%] | albuminuria after 52 weeks of treatment (in words) ([2]; subjects with micro- and macroalbuminuria at baseline, FIG. 1 and FIG. 2) | effect on eGFR (in words) [3] | median percent reductions in albuminuria ([4]; baseline eGFR 30 to <50 ml/min/1.73 m^2, canagliflozin 100 mg) [%] | median percent reductions in albuminuria ([4]; baseline eGFR 30 to <50 ml/min/1.73 m^2, canagliflozin 300 mg) [%]
CN(C)C(=N)N=C(N)N [metformin] | 1.0-1.5% |  |  |  |  |  | 
Cc1ccc([C@@H]2O[C@H](CO)[C@@H](O)[C@H](O)[C@H]2O)cc1Cc1ccc(-c2ccc(F)cc2)s1 [canagliflozin] |  | −58.6 | −53.3 | reductions in albuminuria | dose-dependent, reversible reduction in eGFR | −16.4 | −28.0
